Source: PubChem BioAssay (NCI)
Where “and” joins values, the source holds several entries; their conditions need not be identical. Equal values may be shown once.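 Protocol summary: plate cells (96-well), add compound at 5 concentrations, incubate 48 h, interpolate endpoints linearly. The concentration for 50% growth inhibition is given as GI50. TGI: concentration producing complete growth inhibition.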

How the values were obtained:
Assay in all cases: NCI tumour cell line growth inhibition, 48 h
NCI-H226 lung = test system: NCI-H226 lung
SK-MEL-28 melanoma = test system: SK-MEL-28 melanoma
KM12 colon = test system: KM12 colon
IGROV1 ovarian = test system: IGROV1 ovarian
SK-MEL-5 melanoma = test system: SK-MEL-5 melanoma
SNB-19 CNS = test system: SNB-19 CNS
HCT-15 colon = test system: HCT-15 colon
PC-3 prostate = test system: PC-3 prostate
LXFL 529 NSCLC = test system: LXFL 529 NSCLC
EKVX NSCLC = test system: EKVX NSCLC
OVCAR-3 ovarian = test system: OVCAR-3 ovarian
SN12K1 renal = test system: SN12K1 renal
DMS 273 small cell lung = test system: DMS 273 small cell lung
HOP-18 NSCLC = test system: HOP-18 NSCLC
NCI/ADR-RES ovarian = test system: NCI/ADR-RES ovarian
MOLT-4 leukemia = test system: MOLT-4 leukemia
HS 578T breast = test system: HS 578T breast
LOX IMVI melanoma = test system: LOX IMVI melanoma
MDA-MB-435 = test system: MDA-MB-435
NCI-H460 lung = test system: NCI-H460 lung

**Q.** Which results are given for `O=NN(CCCl)C(=O)NCCCl`?
**A.** GI50 (NCI-H226 lung): 147 µM and 207 µM; TGI (NCI-H226 lung): 250 µM and > 383 µM; TGI (SK-MEL-28 melanoma): 147 µM and 165 µM; GI50 (KM12 colon): > 500 µM; TGI (KM12 colon): 250 µM and 194 µM and > 500 µM; GI50 (IGROV1 ovarian): 55.9 µM and 196 µM; TGI (IGROV1 ovarian): 176 µM and 150 µM and > 374 µM; GI50 (SK-MEL-5 melanoma): 95.6 µM and 362 µM; TGI (SK-MEL-5 melanoma): 250 µM and 161 µM and > 500 µM; GI50 (SNB-19 CNS): 61.1 µM and 169 µM; TGI (SNB-19 CNS): 250 µM and 168 µM and > 380 µM; GI50 (HCT-15 colon): 52.7 µM and 121 µM; TGI (HCT-15 colon): 127 µM and 150 µM and > 267 µM; GI50 (PC-3 prostate): > 305 µM; TGI (PC-3 prostate): 209 µM and > 390 µM; TGI (LXFL 529 NSCLC): 141 µM; GI50 (EKVX NSCLC): 152 µM and > 268 µM; TGI (EKVX NSCLC): 250 µM and 225 µM and > 326 µM; GI50 (OVCAR-3 ovarian): 63.9 µM and > 295 µM; TGI (OVCAR-3 ovarian): 152 µM and 159 µM and > 372 µM; TGI (SN12K1 renal): 127 µM; TGI (DMS 273 small cell lung): 157 µM; TGI (HOP-18 NSCLC): 160 µM; GI50 (NCI/ADR-RES ovarian): 61.7 µM and 266 µM; TGI (NCI/ADR-RES ovarian): 156 µM and 234 µM and > 422 µM; GI50 (MOLT-4 leukemia): 39.3 µM and 110 µM; TGI (MOLT-4 leukemia): 151 µM and 161 µM and 320 µM; GI50 (HS 578T breast): 122 µM and 252 µM; TGI (HS 578T breast): 205 µM and 231 µM and > 317 µM; GI50 (LOX IMVI melanoma): 29.5 µM and 170 µM; TGI (LOX IMVI melanoma): 67.4 µM and 124 µM and 362 µM; GI50 (MDA-MB-435): 50 µM and 331 µM; TGI (MDA-MB-435): 127 µM and 147 µM and > 500 µM; GI50 (NCI-H460 lung): 62.4 µM; TGI (NCI-H460 lung): 250 µM and 168 µM
